Source: patent publication US20210388018A1, “METHYL AND ETHYL NICOTINATE-RIBOSIDE-5-PHOSPHATES, PREPARATION THEREOF AND METHODS OF USE THEREOF” (Cornell University, priority 2018, published 2021)
“And” between values parts separate entries of the source, which are not always exact repeats. Equal entries are not always repeated.

Legend:
HEK293 cells [1] = test: Intracellular NAD+ in HEK293 cells after NaMN or NR (diaphorase-based assay); assay type: cell-based, human; conditions: HEK293, 1 mM, 8 h incubation, FIG. 1
Protocol: (§1) The ability of nicotinic acid mononucleotide, NaMN, to serve as an NAD^+ enhancing agent in mammalian cell lines, Neuro2a and HEK293 cells was examined after an 8 h incubation. NaMN was added to cell growth media at a concentration of 1 mM. All cell treatments were done in duplicate. Nicotinamide riboside (NR) at 1 mM concentration was performed as a positive control. Untreated cells served as negative controls. Cells were treated for the allotted time then harvested by trysin detachment and pelleting. Cells were counted by haemocytometer and then lysed by treatment with 100 μL perchloric acid (7%). Lysates were then neutralized by treatment with NaOH and K2PO4 solutions. NAD^+ concentrations were determined by a diaphorase-based assay. NAD^+ standards were also run to establish a standard curve. The results are graphically depicted in FIG. 1.

Neuro2a cells = test: Intracellular NAD+ in Neuro2a cells after NaMN or NR (diaphorase-based assay); assay type: cell-based; conditions: 1 mM, 8 h incubation, FIG. 1
Protocol: as §1

[2] = test system: tissue NAD concentrations; test: Tissue NAD concentrations in mice 4 h after i.p. injection (cycling assay); assay type: in vivo; conditions: 500 mg/kg i.p. single dose, vs PBS control
Protocol: Sterile solutions of O-methyl-NaMN and O-ethylNaMN were prepared by combination with phosphate buffered saline for injection into mice. Mice were injected by intraperitoneal injection at a single dosage of 500 mg/kg. All mice were weighed to achieve correct injection volume. Each group was composed of 5 mice, and mice were sacrificed at 4 hours. Control mice received only PBS. At sacrifice, mice were first injected with an anesthetic dose of ketamine to obtain blood by cardiac puncture. Then mice were euthanized and tissues harvested and frozen immediately in liquid nitrogen.
To determine tissue NAD concentrations, tissues were weighed and pulverized in liquid nitrogen. Perchloric acid (7%) was then added to pulverized tissue samples and neutralized by NaOH and 250 mM potassium phosphate buffer pH 8.5. Samples were pelleted to remove insoluble material. NAD concentrations were determined by cycling assay as published (Li et al., Methods in molecular biology 1241, 39-48, doi:10.1007/978-1-4939-1875-1_4 (2015)). […] This property is desirable, as effects expected from NAD enhancement in muscle include mitochondrial biogenesis and improved insulin sensitivity, as noted for other agents that increase NAD concentrations in this tissue^3. In fact, the extent of NAD raising exceeds those observed for other agents.

C2C12 cells = test: Cellular NAD at 14 h in C2C12 cells (cycling assay); assay type: cell-based, murine; design: cellular NAD: unit not given here
Protocol: (§2) Neu2a, HEK293, HEPG2 and C2C12 cells were cultured and the dosage of the corresponding compound was increased by amounts of 0, 100 μM, 400 μM and 800 μM for each cell line. Each experiment was performed in triplicate. Cells were incubated for a period of 14 hr. At termination of incubation, media was removed and cells were treated with trypsin to gently detach and cells counted. Cell pellets were obtained by centrifugation, and then […] of 7% perchloric acid was added to extract NAD. Extracts obtained were then neutralized by addition of NaOH and 250 mM potassium phosphate buffer pH 8.5. NAD was determined by a cycling assay that measures NAD concentrations by comparison to a standard curve (Li et al., 2015).

HEK293 cells [3] = test: Cellular NAD at 14 h in HEK293 cells (cycling assay); assay type: cell-based, human; design: unit not given here
Protocol: as §2

HEPG2 cells = test: Cellular NAD at 14 h in HEPG2 cells (cycling assay); assay type: cell-based; design: unit not given here
Protocol: as §2

Neu2a cells = test: Cellular NAD at 14 h in Neu2a cells (cycling assay); assay type: cell-based; design: cellular NAD: unit not given here
Protocol: as §2

HEK-293 cells = test: NAD+ concentration in HEK-293 cells after 24 h EtNaMN (NAD+ cycling assay); assay type: cell-based, human
Protocol: HEK-293 cells were treated with 0 μM, 250 μM, and 500 μM of ((2R,3R,4S,5R)-3,4-dihydroxy-5-(3-(ethoxycarbonyl)pyridin-1-ium-1-yl)tetrahydrofuran-2-yl)methyl hydrogen phosphate (EtNaMN) at an initial density of 500,000 cells per well. After 24 h treatment, the NAD^+ concentration was determined using a known NAD^+ cycling assay (Jacobson, E. L. et al., Arch. Biochem. Biophys., 175: 627-634 (1976)). The cells were washed with PBS, counted by haemocytometry and pelleted. The cells were then treated with 7% perchloric acid, and then neutralized with 1 M NaOH and 500 mM potassium phosphate pH 8.5. NAD^+ contents were then measured on a plate reader using diaphorase and lactate dehydrogenase using Resazurin as a dye that is reduced to rezarufin (emission 560 nm). NAD^+ levels were quantitated using a standard curve using known NAD^+ concentrations. NAD^+ concentrations are determined to nmol NAD^+/10^6 cells.

| SMILES | intracellular NAD+ content vs untreated cells (HEK293 cells [1]) | intracellular NAD+ content vs untreated cells (Neuro2a cells) | increase in tissue NAD, blood [2] | increase in tissue NAD, kidney [2] | increase in tissue NAD, skeletal muscle [2] | cellular NAD (C2C12 cells; C2C12, 100 μM) | cellular NAD (C2C12 cells; C2C12, 400 μM) | cellular NAD (C2C12 cells; C2C12, 800 μM) | cellular NAD (HEK293 cells [3]; HEK293, 100 μM) | cellular NAD (HEK293 cells [3]; HEK293, 400 μM) | cellular NAD (HEK293 cells [3]; HEK293, 800 μM) | cellular NAD (HEPG2 cells; HEPG2, 100 μM) | cellular NAD (HEPG2 cells; HEPG2, 400 μM) | cellular NAD (HEPG2 cells; HEPG2, 800 μM) | cellular NAD (Neu2a cells; 100 μM) | cellular NAD (Neu2a cells; 400 μM) | cellular NAD (Neu2a cells; 800 μM) | other results |
| --- | --- | --- | --- | --- | --- | --- | --- | --- | --- | --- | --- | --- | --- | --- | --- | --- | --- | --- |
| O=C(O)c1ccc[n+]([C@@H]2O[C@H](COP(=O)(O)O)[C@@H](O)[C@H]2O)c1 [NaMN, nicotinic acid mononucleotide] | No intracellular increase in NAD^+ | No intracellular increase in NAD^+ | – | – | – | – | – | – | – | – | – | – | – | – | – | – | – | – |
| NC(=O)c1ccc[n+]([C@@H]2O[C@H](CO)[C@@H](O)[C@H]2O)c1 [NR, Nicotinamide riboside] | increased NAD^+ contents in cells | increased NAD^+ contents in cells | – | – | – | – | – | – | – | – | – | – | – | – | – | – | – | – |
| COC(=O)c1ccc[n+]([C@@H]2O[C@H](COP(=O)([O-])O)[C@H](O)[C@@H]2O)c1 [O-MeNaMN, ((2R,3R,4S,5R)-3,4-dihydroxy-5-(3-(methoxycarbonyl)pyridin-1-ium-1-yl)tetrahydrofuran-2-yl)methyl hydrogen phosphate] | – | – | Neither ethyl nor methyl derivatives appeared active as NAD enhancers in blood | ~2.5 fold | unique capability to increase skeletal muscle NAD concentrations | 2864 ± 565 | 2596 ± 572 | 2574 ± 355 | 1178 ± 65 | 947 ± 101 | 1440 ± 204 | 2227 ± 280 | 1663 ± 61 | 2383 ± 155 | 1204 ± 158 | 1523 ± 145 | 2125 ± 187 | increase in cellular NAD concentrations vs control (C2C12 cells; all concentrations tested (100, 400, 800 μM), cell line not given, figures fit C2C12): at least 70%; increase in cellular NAD concentrations vs control (fold, in words) (Neu2a cells; 800 μM): more than two fold |
| CCOC(=O)c1ccc[n+]([C@@H]2O[C@H](COP(=O)([O-])O)[C@H](O)[C@@H]2O)c1 [O-EtNaMN, ((2R,3R,4S,5R)-3,4-dihydroxy-5-(3-(ethoxycarbonyl)pyridin-1-ium-1-yl)tetrahydrofuran-2-yl)methyl hydrogen phosphate] | – | – | increases in blood were not apparent | approximately twofold | no apparent effect | 1886 ± 183 | 1766 ± 69.5 | 2320 ± 208 | 1128 ± 95 | 1144 ± 132 | 1133 ± 168 | 2222 ± 99 | 2331 ± 429 | 2287 ± 181 | 1624 ± 24 | 1727 ± 40.8 | 1744 ± 151 | NAD+ Concentration (HEK-293 cells; HEK293, 250 μM EtNaMN): 220 μM ± 42 μM; NAD+ Concentration relative to control (HEK-293 cells; HEK293, 250 μM EtNaMN): 1.29 and 1.29 ± 0.24; NAD+ Concentration (HEK-293 cells; HEK293, 500 μM EtNaMN): 270 μM ± 35 μM; NAD+ Concentration relative to control (HEK-293 cells; HEK293, 500 μM EtNaMN): 1.59 and 1.59 ± 0.21; increase in tissue NAD, liver ([2]; liver): greater than twofold; increase in NAD concentrations vs control (C2C12 cells; 800 μM, cell line not given, figures fit C2C12): 68%; increase in cellular NAD vs control (Neu2a cells; 100 μM): ~40%; increase in cellular NAD concentrations vs control (Neu2a cells; 800 μM): 50% |
